Measurements from patent EP0352863A2, “1,4-Dihydropyridine dicarboxylic acid derivatives” (ZAMBON GROUP S.p.A., priority 1988, dated 1990).
pIC50: −log10 of the molar value. Like-named read-outs stand apart in the source and are kept apart here.

Columns and labels:
rabbit mesenteric artery = assay: calcium-antagonist activity, rabbit mesenteric artery test (antagonism of 3 mM Ca++ in Krebs depolarizer); settings: Ca++ submaximal concentration 3mM, read-out: IC₅₀
Protocol: Calcium-antagonist activity of the compounds of formula I has been tested as capability of antagonizing the effect of Ca⁺⁺ submaximal concentrations (3mM) on preparations of rabbit mesenteric artery in Krebs depolarizer, prepared according to Towart "J. Cardiovasc. Pharmacol. 4, 895, (1982)".
The compounds of this invention, tested as calcium antagonist agents on the rabbit mesnteric artery show an IC₅₀ of from 10 to 200 (nM); Ki affinity for beta₁ receptors is of from 30 to 2000 (nM) and for beta₂ receptors is of from 20 to 5000 (nM).

beta₁ heart receptors = molecular target: T1, beta₁ heart receptors (Mus musculus, UniProt P34971); assay: binding test, beta1 heart receptors
T1 construct: from tissue; host or cells: mouse heart
T1 sequence (P34971 whole entry): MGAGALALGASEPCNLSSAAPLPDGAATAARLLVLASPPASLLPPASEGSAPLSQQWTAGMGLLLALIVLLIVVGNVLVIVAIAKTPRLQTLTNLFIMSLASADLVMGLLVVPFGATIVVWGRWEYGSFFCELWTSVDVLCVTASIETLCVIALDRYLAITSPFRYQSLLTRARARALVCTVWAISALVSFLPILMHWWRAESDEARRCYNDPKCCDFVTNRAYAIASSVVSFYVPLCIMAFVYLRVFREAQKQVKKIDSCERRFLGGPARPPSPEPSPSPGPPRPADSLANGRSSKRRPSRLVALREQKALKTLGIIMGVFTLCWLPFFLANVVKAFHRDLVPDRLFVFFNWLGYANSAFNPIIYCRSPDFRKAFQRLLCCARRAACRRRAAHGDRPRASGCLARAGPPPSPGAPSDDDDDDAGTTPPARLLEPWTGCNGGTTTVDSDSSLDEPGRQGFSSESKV
Source text: (§1) Moreover, the beta-blocking activity has been tested by means of the binding test both towards beta₁ heart receptors and towards beta₂ lung receptor in mouse according to the methods described in the J. Biol. Chem., 253, 5090, (1978) and in the Br. j. Pharmacol., 68, 57, (1980).

beta₂ lung receptor = molecular target: T2, beta₂ lung receptor (Mus musculus, UniProt P18762); assay: binding test, beta2 lung receptors
T2 construct: Ki (nM) mouse lung beta₂ receptors; from tissue; host or cells: mouse lung
T2 sequence (P18762 whole entry): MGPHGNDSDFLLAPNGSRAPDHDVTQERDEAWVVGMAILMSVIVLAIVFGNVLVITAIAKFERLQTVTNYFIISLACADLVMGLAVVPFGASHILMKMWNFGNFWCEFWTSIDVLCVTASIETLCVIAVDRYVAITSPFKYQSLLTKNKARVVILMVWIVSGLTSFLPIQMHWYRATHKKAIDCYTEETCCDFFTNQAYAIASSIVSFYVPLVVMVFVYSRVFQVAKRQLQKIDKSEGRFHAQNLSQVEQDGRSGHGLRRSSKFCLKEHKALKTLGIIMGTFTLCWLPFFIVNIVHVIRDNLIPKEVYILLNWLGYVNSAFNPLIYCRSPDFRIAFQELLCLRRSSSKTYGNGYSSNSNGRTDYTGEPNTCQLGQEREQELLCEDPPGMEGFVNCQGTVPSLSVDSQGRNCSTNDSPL
Source text: as §1

anesthetized dog = assay: heart rate and mean arterial pressure in the anesthetized dog; format: in vivo; settings: doses of from 100 to 400 ug/kg
Protocol: The compounds of formula I produce antihypertensive effects in mouse and dog with concomitant reduction of the heart rate.
For example, in the anesthetized dog, compound 1 caused a heart rate reduction of from 9 to 23% and a reduction of the mean arterial pressure of from 3 to 15% at doses of from 100 to 400 ug/kg; at the same doses diastereoisomer A caused a heart rate reduction of from 17 to 30% and a mean arterial pressure reduction of from 12 to 25%, respectively.

Row | Compound | pIC50 (rabbit mesenteric artery) | Ki (beta₁ heart receptors) [nM] | Ki (beta₂ lung receptor) [nM] | duration of hypotensive effect and bradycardia (anesthetized dog) | pIC50 (rabbit mesenteric artery; Oryctolagus cuniculus)
1 | CCOC(=O)C1=C(C)NC(CN(C)CC(C)(C)NCC(O)COc2ccccc2OC)=C(C(=O)OCC)C1c1cccc([N+](=O)[O-])c1 (single isomer, unassigned) [diastereoisomer A] | 7.82 | 600 | 2050 | lasting over five hours | –
2 | CCOC(=O)C1=C(C)NC(CN(C)CC(C)(C)NCC(O)COc2ccccc2OC)=C(C(=O)OCC)C1c1cccc([N+](=O)[O-])c1 (single isomer, unassigned) [diastereoisomer B] | 6.92 | 165 | 560 | – | –
3 | CCOC(=O)C1=C(C)NC(CN(C)CC(C)(C)NCC(O)COc2ccccc2OC)=C(C(=O)OCC)C1c1cccc([N+](=O)[O-])c1 (stereo not shown) [Compound 1, ethyl 1,4-dihydro-6-methyl-2-(N-methyl-N-(2-(2-hydroxy-3-(2-methoxyphenoxy)-propylamino)-2-methylpropyl)aminomethyl)-4-(3-nitrophenyl)-3,5-pyridinedicarboxylate] | – | – | – | – | 7.33
4 | CC(C)NCC(O)COc1ccc(CC(N)=O)cc1 (stereo not shown) [atenolol, reference compound] | – | 840 | 18000 | – | –
